This assay deals with human endothelial lipase (EL) (Homo sapiens (Human), UniProt Q9Y5X9). Description: Human endothelial lipase (EL) inhibitory activity using human HDL. The format is biochemical. Particulars: human HDL 2 mg/ml, 4-hour reaction at 37° C., NEFA readout. The protocol: Evaluation Method of Human Endothelial Lipase (EL) Inhibitory Activity Using Human High-Density Lipoprotein (HDL)
After the present compound dissolved in DMSO was added to become 0.5% DMSO to the reaction buffer consisting of 20 mM tris hydrochloric acid (pH7.4), bovine serum albumin (0.5%), calcium chloride (4 mM), sodium chloride (150 mM) and human HDL (2 mg/ml), the EL enzyme was added (total volume was 20 μl).
After 4-hour reaction at 37° C., non-esterified fatty acid (NEFA) generated from HDL by EL was measured with a commercially available assay kit and the amount of NEFA was used as an index of enzyme activity.

Chain of human endothelial lipase (EL) (Q9Y5X9 21-500): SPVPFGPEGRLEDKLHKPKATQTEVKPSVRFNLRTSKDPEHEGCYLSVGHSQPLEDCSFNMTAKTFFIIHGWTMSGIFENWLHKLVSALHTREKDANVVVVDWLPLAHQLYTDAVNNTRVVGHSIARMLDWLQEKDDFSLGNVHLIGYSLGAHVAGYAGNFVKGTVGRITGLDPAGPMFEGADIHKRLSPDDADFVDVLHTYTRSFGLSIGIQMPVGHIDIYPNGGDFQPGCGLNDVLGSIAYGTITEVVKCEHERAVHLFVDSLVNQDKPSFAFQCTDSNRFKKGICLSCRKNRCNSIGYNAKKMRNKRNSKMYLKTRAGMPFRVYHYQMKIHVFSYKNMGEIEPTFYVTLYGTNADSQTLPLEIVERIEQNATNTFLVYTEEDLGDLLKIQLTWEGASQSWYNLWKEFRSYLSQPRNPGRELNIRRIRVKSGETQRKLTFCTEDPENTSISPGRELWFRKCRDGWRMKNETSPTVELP

What is called IC50 is the concentration at which inhibition is half-maximal. Regarding `CC(O)CNC(=O)CNC(=O)Cc1nc2ccc(-c3ccccc3)cc2s1` (stereo not drawn) [II-2-131], the IC50 was 92 nM. As for `NS(=O)(=O)c1cccc(CNC(=O)Cc2nc3ccc(-c4ccccc4)cc3s2)c1` [II-1-11], the figure is 560 nM; as for `O=C(Cc1nc2ccc(-c3ccccc3)cc2s1)NCc1cccc(C(=O)O)c1` [II-1-1], 230 nM; as for `N#CCNC(=O)CNC(=O)Cc1nc2ccc(-c3ccccc3)cc2s1` [II-2-1], 110 nM. As for `COc1cc2nc(CC(=O)NCC(=O)NCC#N)sc2cc1-c1ccccc1` [II-2-144], the figure is 29 nM; as for `COCC(O)CNC(=O)Cc1nc2ccc(-c3ccccc3)cc2s1` (stereo not drawn) [II-1-190], 2100 nM; as for `CN(C)C(=O)c1cccc(CNC(=O)Cc2nc3ccc(-c4ccccc4)cc3s2)c1` [II-1-17], 1300 nM. The compound `N#CC1(NC(=O)CNC(=O)Cc2nc3ccc(-c4ccccc4)cc3s2)CC1` [II-2-67] yielded an IC50 of 29 nM.

Consider `O=C(Cc1nc2cc(-c3cccc(C(F)(F)F)c3)ccc2s1)NCc1cccc(C(=O)O)c1` [II-1-202], for which the IC50 was 290 nM. The same measure for `N#CCNC(=O)CNC(=O)Cc1nc2cc(-c3ccc(OC(F)(F)F)cc3)ccc2s1` [II-2-291]: 56 nM. The same measure for `C#CCNC(=O)CNC(=O)Cc1nc2ccc(-c3ccccc3)cc2s1` [II-2-211]: 32 nM; for `O=C(Cc1nc2ccc(-c3ccccc3)cc2s1)NCc1nc(C(=O)O)cs1` [II-1-246]: 280 nM.
